Reference: PubChem BioAssay AID1996
Values after ≈ are worked out from the molar mass of the structure shown.

Conditions: buffer; pH 7.4; 200.0 µM
Molecule `CCN(CC)c1ccc(N=Cc2c(O)[nH]c(=O)[nH]c2=O)cc1` has a solubility kinetic of 5.8 µg/mL (≈ 19.2 µM). For `Cn1c(N)c(C(=O)COC(=O)/C=C/c2ccc(Cl)c(Cl)c2)c(=O)n(C)c1=O`, the solubility kinetic was 2.9 µg/mL (≈ 7.03 µM). With `COc1cccc2[nH]c(C(=O)NCCCN3CCCC3=O)cc12` the solubility kinetic was over 47.3 µg/mL. For `CC(NC(=O)c1ccc(F)cc1)C(=O)NC1=NCCS1` (configuration not stated), the solubility kinetic was over 44.3 µg/mL. `CC1(C)CC(=O)C=C(NCCc2c[nH]c3ccccc23)C1` showed a solubility kinetic of over 42.4 µg/mL. Molecule `O=C(Nc1ccccc1C(F)(F)F)C1CCCC1` has a solubility kinetic of 30.4 µg/mL (≈ 118 µM). With `CSc1sc(C(=O)N(C)C)cc1S(=O)(=O)C(C)C` the solubility kinetic was over 46.1 µg/mL. `Cc1nc(SCC(=O)N2CCNC2=O)c2ccccc2n1` gave a solubility kinetic of over 45.4 µg/mL. Molecule `O=[N+]([O-])/C=C1\C=CC=CN1Cc1ccc(Cl)cc1` has a solubility kinetic of 31.7 µg/mL (≈ 121 µM). For `Cc1ccc(C(=O)Nc2ccc(OCc3ccccc3)cc2)s1`, the solubility kinetic was 3.8 µg/mL (≈ 11.7 µM). `Cc1csc(SCC(=O)NC(C)C2CC3CCC2C3)n1` (configuration not stated) gave a solubility kinetic of over 46.6 µg/mL. In the case of `CC[C@H](C)[C@H](NC(N)=O)C(=O)Nc1ccccc1F`, the solubility kinetic is reported as over 40.1 µg/mL. Molecule `NS(=O)(=O)c1ccc(CCNC(=O)C2CCN(C(=O)Nc3ccccc3)CC2)cc1` has a solubility kinetic of 63.9 µg/mL (≈ 148 µM). With `COc1ccc(CC(=O)NCc2ccccc2)cc1OC` the solubility kinetic was over 42.8 µg/mL. Molecule `O=C(Nc1cccc2ccccc12)c1ccc([N+](=O)[O-])cc1` has a solubility kinetic of 1 µg/mL (≈ 3.42 µM). With `COc1ccc(CCNC(=O)Nc2cccs2)c(OC)c1` the solubility kinetic was 15.6 µg/mL (≈ 50.9 µM). For `Cc1ccc(Cl)cc1NC(=O)NCc1cccnc1`, the solubility kinetic was 18.5 µg/mL (≈ 67.1 µM). `Cc1nc(-c2ccccc2)sc1C(=O)NN` showed a solubility kinetic of over 35 µg/mL. Work on `CC(C)c1nc2cc(C(=O)NC(C)c3cnn(C)c3)ccc2o1` (configuration not stated) yielded a solubility kinetic of over 46.9 µg/mL. Work on `Cc1cc(C)c2[nH]c(C(=O)Nc3ccc4c(c3)OCO4)cc2c1` yielded a solubility kinetic of 2.2 µg/mL (≈ 7.14 µM). `COc1ccc(NC(=O)Cn2cnc3ccccc3c2=O)cc1OC` gave a solubility kinetic of 12.6 µg/mL (≈ 37.1 µM). For `CC1CCN(C(=O)c2ccc(N3C(=O)C4CCC(C)CC4C3=O)cc2)CC1` (configuration not stated), the solubility kinetic was 48.4 µg/mL (≈ 131 µM). `CCCN(CC(=O)Nc1ccc(F)c(F)c1F)C(=O)c1ccc2c(c1)NC(=O)CS2` showed a solubility kinetic of 11.2 µg/mL (≈ 25.6 µM). Molecule `CCOC(=O)c1c(-c2ccccc2)oc2ccc(OCC(N)=O)cc12` has a solubility kinetic of under 0.7 µg/mL. `O=C1c2ccccc2C(=O)N1CCCn1ccnc1` showed a solubility kinetic of over 38.3 µg/mL. Molecule `Nc1c(C(=O)c2ccccc2)oc2ccc([N+](=O)[O-])cc12` has a solubility kinetic of 1.3 µg/mL (≈ 4.61 µM). Molecule `Cc1ccc(N=C2c3ccccc3C(=O)C2[N+](=O)[O-])cc1C` (configuration not stated) has a solubility kinetic of 8.8 µg/mL (≈ 29.9 µM). For `CCOc1ccc2ccccc2c1C1NC(=O)N(C)C(C)=C1C(=O)OCCOC` (configuration not stated), the solubility kinetic was 1.9 µg/mL (≈ 4.77 µM). For `Cc1ccc(N=C(NO)c2cnccc2C(F)(F)F)c(C)c1`, the solubility kinetic was over 46.4 µg/mL. Molecule `COc1ccc(C2C(C(=O)O)c3ccccc3C(=O)N2Cc2ccco2)cc1` (configuration not stated) has a solubility kinetic of over 56.6 µg/mL. `CC(C)CNC(=O)c1ccc2c(c1)C(=O)N(C1CCCCC1)C2=O` gave a solubility kinetic of 4.4 µg/mL (≈ 13.4 µM). Molecule `O=C(Cc1c(Cl)cccc1Cl)NC1CC1` has a solubility kinetic of over 36.6 µg/mL. Work on `CC(C)(C)c1cc(-c2ccccc2)no1` yielded a solubility kinetic of 0.8 µg/mL (≈ 3.97 µM). With `COc1c(Cl)ccc(Cl)c1C(=O)NCc1ccco1` the solubility kinetic was over 45 µg/mL. `CNS(=O)(=O)c1cccc(C(=O)NCC2CCCCC2)c1` showed a solubility kinetic of over 46.6 µg/mL. `CC(Cc1c[nH]c2ccccc12)NC(=O)OCCCl` (configuration not stated) showed a solubility kinetic of over 42.1 µg/mL. Work on `O=C(CNC(=O)C1CC1)Nc1ccc(F)c(F)c1F` yielded a solubility kinetic of over 40.8 µg/mL. For `C=CCn1c(=O)c(C(=O)Nc2cc(C)ccn2)c(O)c2ccccc21`, the solubility kinetic was under 0.2 µg/mL. Work on `COc1ccc(NC(=O)CC2SC(N3CCCC3)=NC2=O)cc1Cl` (configuration not stated) yielded a solubility kinetic of 6.8 µg/mL (≈ 18.5 µM). With `COc1ccc(CNC(=O)CC2Sc3ccccc3NC2=O)cc1` (configuration not stated) the solubility kinetic was 1.6 µg/mL (≈ 4.67 µM). Molecule `Cc1cccc(C)c1NC(=O)c1cccc(C(=O)Nc2c(C)cccc2C)n1` has a solubility kinetic of 27.7 µg/mL (≈ 74.2 µM). `CCC(C(=O)Nc1ccccn1)c1ccccc1` (configuration not stated) showed a solubility kinetic of over 36 µg/mL. In the case of `O=C(O)CN1C(=O)S/C(=C\c2ccc3c(c2)OCO3)C1=O`, the solubility kinetic is reported as 41 µg/mL (≈ 133 µM). Work on `O=C(Nc1ccc(S(=O)(=O)NC2=NCCCCC2)cc1)c1cccs1` yielded a solubility kinetic of over 56.6 µg/mL. Molecule `CN1CCCN(C(=O)c2ccc(Cl)cc2)CC1` has a solubility kinetic of 32.9 µg/mL (≈ 130 µM). Molecule `CC1CN(C(=O)c2cccs2)CC(C)O1` (configuration not stated) has a solubility kinetic of 32.4 µg/mL (≈ 144 µM). `Cc1ccc(S(=O)(=O)c2c(C)c(C)c(C)[nH]c2=O)cc1` showed a solubility kinetic of 29.7 µg/mL (≈ 102 µM).
